IC50 data for 4 compounds are collected here from ChEMBL document CHEMBL5727642, “Bicyclic proline compounds” (2020).

Structures are written as SMILES.

The nature of this experiment: FLIPR Tetra Assay: IC50 (effective concentration) of compounds on the human and rat TRPA1 channels were determined using a FLIPR Tetra instrument. CHO cells expressing TRPA1 were plated into 384-well plates, incubated overnight at 37° C., and loaded with BD calcium indicator dye for 1 hr at 37° C. followed by 15 minutes. at room temperature. The assay buffer was Hank's Balanced Salt Solution (HBSS) containing 20 mM HEPES (pH readjusted to 7.4) along with 0.02% BSA.Following dye load and plate cool down, compounds were added to the cells using FLIPR Tetra. Plates were then incubated with compounds for 20 minutes at room temperature prior to adding agonist. Following this incubation, ˜EC80 concentration of cinnamaldehyde (75 uM for human TRPA1 and 45 uM for rat TRPA1) was added to active the channels and block of cinnamaldehyde induced calcium influx was measured.

A word on the IC50: it is the point on the concentration scale where inhibition reaches its midpoint. As to `O=C(NCc1cc(-c2cnc(C(F)(F)F)nc2)cnc1C(F)(F)F)[C@@H]1C2CC(C2)N1S(=O)(=O)c1ccc(F)cc1`, the IC50 was 12.1 nM. With `O=C(NCc1cc(-c2cnc(C(F)(F)F)nc2)c(F)cn1)[C@@H]1C2CC(C2)N1S(=O)(=O)c1ccc(F)c(F)c1`, the IC50 came to 10.6 nM.

As for `O=C(NCc1cc(-c2cnc(C(F)(F)F)nc2)ncc1Cl)[C@@H]1C2CC(C2)N1S(=O)(=O)c1ccc(F)cc1`, the IC50 came out at 6.08 nM. Then `O=C(NCc1cc(-c2cnc(C(F)(F)F)nc2)ncc1C1CC1)[C@@H]1C2CC(C2)N1S(=O)(=O)c1ccc(F)cc1`, with 16.3 nM.
